# Test results published in patent US11236129B2, “IL-17A binding peptides and medical uses thereof” (Dompe' Farmaceutici S.P.A., priority 2018, dated 2022).
# Residues, ends and D or L forms follow the SMILES beside them.
# Biological target: IL-17RA/IL17RC dimerization induced by IL-17A (Homo sapiens, UniProt Q16552)
# Experiment: IL-17RA/IL17RC dimerization assay in response to IL-17A (PathHunter Cytokine Receptor Assay)
# Format: cell-based
# Settings: not given
# Outline: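 Receptor dimerization was read as chemiluminescence from complemented β-galactosidase after IL-17A at EC80 concentration for 6–16 h at 37 °C. Peptides were added 60 min before agonist, at 37 °C or room temperature, with 1% vehicle. Percent inhibition used the EC80-stimulated and vehicle wells as references.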
# Chain of IL-17RA/IL17RC dimerization induced by IL-17A (Q16552 24-155): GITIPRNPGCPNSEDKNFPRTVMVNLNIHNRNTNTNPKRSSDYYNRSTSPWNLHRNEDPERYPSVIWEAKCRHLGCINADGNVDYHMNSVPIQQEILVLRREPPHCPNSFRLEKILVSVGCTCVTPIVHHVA
row,SMILES,IC50 [µM]
1,CC[C@H](C)[C@H](NC(C)=O)C(=O)N[C@@H](Cc1c[nH]cn1)C(=O)N[C@H](C(=O)N[C@H](C(=O)N[C@H](C(=O)N1CCC[C@H]1C(=O)N[C@@H](C)C(=O)N[C@@H](CC(=O)O)C(=O)N[C@H](C(=O)N[C@@H](Cc1c[nH]c2ccccc12)C(=O)N[C@@H](CC(=O)O)C(=O)N[C@@H](Cc1c[nH]c2ccccc12)C(=O)N[C@H](C(=O)N[C@@H](CC(N)=O)C(=O)N[C@@H](CCCCN)C(N)=O)[C@@H](C)CC)[C@@H](C)CC)[C@@H](C)CC)[C@@H](C)O)C(C)C [SEQ ID NO: 205] (Ac-IHVTIPADIWDWINK-NH2),< 10

# Same assay, conditions: IL-17A at EC80; read-out: IC50 in IL-17RA/IL7RC dimerization assay
row,SMILES,IC50 [µM]
1,CC[C@H](C)[C@H](NC(C)=O)C(=O)N[C@@H](Cc1c[nH]cn1)C(=O)N[C@H](C(=O)N[C@H](C(=O)N[C@H](C(=O)N1CCC[C@H]1C(=O)N[C@@H](C)C(=O)N[C@@H](Cc1ccc(O)cc1)C(=O)N[C@@H](CC(C)C)C(=O)N[C@@H](Cc1c[nH]c2ccccc12)C(=O)N[C@@H](CC(=O)O)C(=O)N[C@@H](Cc1c[nH]c2ccccc12)C(=O)N[C@H](C(=O)N[C@@H](CC(N)=O)C(=O)N[C@@H](CCCCN)C(N)=O)[C@@H](C)CC)[C@@H](C)CC)[C@@H](C)O)C(C)C [SEQ ID NO: 200] (Ac-IHVTIPAYLWDWINK-NH2),< 10
2,CC[C@H](C)[C@H](NC(C)=O)C(=O)N[C@@H](Cc1c[nH]cn1)C(=O)N[C@H](C(=O)N[C@H](C(=O)N[C@H](C(=O)N1CCC[C@H]1C(=O)N[C@@H](C)C(=O)N[C@@H](CC(=O)O)C(=O)N[C@@H](C)C(=O)N[C@@H](Cc1c[nH]c2ccccc12)C(=O)N[C@@H](CC(=O)O)C(=O)N[C@@H](Cc1c[nH]c2ccccc12)C(=O)N[C@H](C(=O)N[C@@H](CC(N)=O)C(=O)N[C@@H](CCCCN)C(N)=O)[C@@H](C)CC)[C@@H](C)CC)[C@@H](C)O)C(C)C [SEQ ID NO: 201] (Ac-IHVTIPADAWDWINK-NH2),< 10
3,CC[C@H](C)[C@H](NC(C)=O)C(=O)N[C@@H](Cc1c[nH]cn1)C(=O)N[C@H](C(=O)N[C@H](C(=O)N[C@H](C(=O)N1CCC[C@H]1C(=O)N[C@@H](C)C(=O)N[C@@H](CC(=O)O)C(=O)NCC(=O)N[C@@H](Cc1c[nH]c2ccccc12)C(=O)N[C@@H](CC(=O)O)C(=O)N[C@@H](Cc1c[nH]c2ccccc12)C(=O)N[C@H](C(=O)N[C@@H](CC(N)=O)C(=O)N[C@@H](CCCCN)C(N)=O)[C@@H](C)CC)[C@@H](C)CC)[C@@H](C)O)C(C)C [SEQ ID NO: 202] (Ac-IHVTIPADGWDWINK-NH2),< 10
4,CC[C@H](C)[C@H](NC(C)=O)C(=O)N[C@@H](Cc1c[nH]cn1)C(=O)N[C@H](C(=O)N[C@H](C(=O)N[C@H](C(=O)N1CCC[C@H]1C(=O)N[C@@H](C)C(=O)N[C@@H](CC(=O)O)C(=O)N1CCC[C@H]1C(=O)N[C@@H](Cc1c[nH]c2ccccc12)C(=O)N[C@@H](CC(=O)O)C(=O)N[C@@H](Cc1c[nH]c2ccccc12)C(=O)N[C@H](C(=O)N[C@@H](CC(N)=O)C(=O)N[C@@H](CCCCN)C(N)=O)[C@@H](C)CC)[C@@H](C)CC)[C@@H](C)O)C(C)C [SEQ ID NO: 203] (Ac-IHVTIPADPWDWINK-NH2),< 10
5,CC[C@H](C)[C@H](NC(C)=O)C(=O)N[C@@H](Cc1c[nH]cn1)C(=O)N[C@H](C(=O)N[C@H](C(=O)N[C@H](C(=O)N1CCC[C@H]1C(=O)N[C@@H](C)C(=O)N[C@@H](CC(=O)O)C(=O)N[C@H](C(=O)N[C@@H](Cc1c[nH]c2ccccc12)C(=O)N[C@@H](CC(=O)O)C(=O)N[C@@H](Cc1c[nH]c2ccccc12)C(=O)N[C@H](C(=O)N[C@@H](CC(N)=O)C(=O)N[C@@H](CCCCN)C(N)=O)[C@@H](C)CC)C(C)C)[C@@H](C)CC)[C@@H](C)O)C(C)C [SEQ ID NO: 204] (Ac-IHVTIPADVWDWINK-NH2),< 10
6,CC[C@H](C)[C@H](NC(C)=O)C(=O)N[C@@H](Cc1c[nH]cn1)C(=O)N[C@H](C(=O)N[C@H](C(=O)N[C@H](C(=O)N1CCC[C@H]1C(=O)N[C@@H](C)C(=O)N[C@@H](CC(=O)O)C(=O)N[C@@H](CC(C)C)C(=O)N[C@@H](Cc1c[nH]cn1)C(=O)N[C@@H](CC(=O)O)C(=O)N[C@@H](Cc1c[nH]c2ccccc12)C(=O)N[C@H](C(=O)N[C@@H](CC(N)=O)C(=O)N[C@@H](CCCCN)C(N)=O)[C@@H](C)CC)[C@@H](C)CC)[C@@H](C)O)C(C)C [SEQ ID NO: 206] (Ac-IHVTIPADLHDWINK-NH2),< 10
7,CC[C@H](C)[C@H](NC(C)=O)C(=O)N[C@@H](Cc1c[nH]cn1)C(=O)N[C@H](C(=O)N[C@H](C(=O)N[C@H](C(=O)N1CCC[C@H]1C(=O)N[C@@H](C)C(=O)N[C@@H](CC(=O)O)C(=O)N[C@@H](CC(C)C)C(=O)N[C@@H](Cc1ccccc1)C(=O)N[C@@H](CC(=O)O)C(=O)N[C@@H](Cc1c[nH]c2ccccc12)C(=O)N[C@H](C(=O)N[C@@H](CC(N)=O)C(=O)N[C@@H](CCCCN)C(N)=O)[C@@H](C)CC)[C@@H](C)CC)[C@@H](C)O)C(C)C [SEQ ID NO: 207] (Ac-IHVTIPADLFDWINK-NH2),< 10
8,CC[C@H](C)[C@H](NC(C)=O)C(=O)N[C@@H](Cc1c[nH]cn1)C(=O)N[C@H](C(=O)N[C@H](C(=O)N[C@H](C(=O)N1CCC[C@H]1C(=O)N[C@@H](C)C(=O)N[C@@H](CC(=O)O)C(=O)N[C@@H](CC(C)C)C(=O)N[C@@H](Cc1c[nH]c2ccccc12)C(=O)N[C@@H](CC(N)=O)C(=O)N[C@@H](Cc1c[nH]c2ccccc12)C(=O)N[C@H](C(=O)N[C@@H](CC(N)=O)C(=O)N[C@@H](CCCCN)C(N)=O)[C@@H](C)CC)[C@@H](C)CC)[C@@H](C)O)C(C)C [SEQ ID NO: 208] (Ac-IHVTIPADLWNWINK-NH2),< 10
9,CC[C@H](C)[C@H](NC(C)=O)C(=O)N[C@@H](Cc1c[nH]cn1)C(=O)N[C@H](C(=O)N[C@H](C(=O)N[C@H](C(=O)N1CCC[C@H]1C(=O)N[C@@H](C)C(=O)N[C@@H](CC(=O)O)C(=O)N[C@@H](CC(C)C)C(=O)N[C@@H](Cc1c[nH]c2ccccc12)C(=O)N[C@@H](CC(=O)O)C(=O)N[C@@H](Cc1c[nH]cn1)C(=O)N[C@H](C(=O)N[C@@H](CC(N)=O)C(=O)N[C@@H](CCCCN)C(N)=O)[C@@H](C)CC)[C@@H](C)CC)[C@@H](C)O)C(C)C [SEQ ID NO: 209] (Ac-IHVTIPADLWDHINK-NH2),< 10
10,CC[C@H](C)[C@H](NC(C)=O)C(=O)N[C@@H](Cc1c[nH]cn1)C(=O)N[C@H](C(=O)N[C@H](C(=O)N[C@H](C(=O)N1CCC[C@H]1C(=O)N[C@@H](C)C(=O)N[C@@H](CC(=O)O)C(=O)N[C@@H](CC(C)C)C(=O)N[C@@H](Cc1c[nH]c2ccccc12)C(=O)N[C@@H](CC(=O)O)C(=O)N[C@@H](Cc1ccccc1)C(=O)N[C@H](C(=O)N[C@@H](CC(N)=O)C(=O)N[C@@H](CCCCN)C(N)=O)[C@@H](C)CC)[C@@H](C)CC)[C@@H](C)O)C(C)C [SEQ ID NO: 210] (Ac-IHVTIPADLWDFINK-NH2),< 10
11,CC[C@H](C)[C@H](NC(C)=O)C(=O)N[C@@H](Cc1c[nH]cn1)C(=O)N[C@H](C(=O)N[C@H](C(=O)N[C@H](C(=O)N1CCC[C@H]1C(=O)N[C@@H](C)C(=O)N[C@@H](CC(=O)O)C(=O)N[C@@H](CC(C)C)C(=O)N[C@@H](Cc1c[nH]c2ccccc12)C(=O)N[C@@H](CC(=O)O)C(=O)N[C@@H](Cc1ccc(O)cc1)C(=O)N[C@H](C(=O)N[C@@H](CC(N)=O)C(=O)N[C@@H](CCCCN)C(N)=O)[C@@H](C)CC)[C@@H](C)CC)[C@@H](C)O)C(C)C [SEQ ID NO: 211] (Ac-IHVTIPADLWDYINK-NH2),< 10
12,CC[C@H](C)[C@H](NC(C)=O)C(=O)N[C@@H](Cc1c[nH]cn1)C(=O)N[C@H](C(=O)N[C@H](C(=O)N[C@H](C(=O)N1CCC[C@H]1C(=O)N[C@@H](C)C(=O)N[C@@H](CC(=O)O)C(=O)N[C@@H](CC(C)C)C(=O)N[C@@H](Cc1c[nH]c2ccccc12)C(=O)N[C@@H](CC(=O)O)C(=O)N[C@@H](Cc1c[nH]c2ccccc12)C(=O)N[C@@H](CCC(=O)O)C(=O)N[C@@H](CC(N)=O)C(=O)N[C@@H](CCCCN)C(N)=O)[C@@H](C)CC)[C@@H](C)O)C(C)C [SEQ ID NO: 212] (Ac-IHVTIPADLWDWENK-NH2),< 10
13,CC[C@H](C)[C@H](NC(C)=O)C(=O)N[C@@H](Cc1c[nH]cn1)C(=O)N[C@H](C(=O)N[C@H](C(=O)N[C@H](C(=O)N1CCC[C@H]1C(=O)N[C@@H](C)C(=O)N[C@@H](CC(=O)O)C(=O)N[C@@H](CC(C)C)C(=O)N[C@@H](Cc1c[nH]c2ccccc12)C(=O)N[C@@H](CC(=O)O)C(=O)N[C@@H](Cc1c[nH]c2ccccc12)C(=O)N[C@@H](CCCCN)C(=O)N[C@@H](CC(N)=O)C(=O)N[C@@H](CCCCN)C(N)=O)[C@@H](C)CC)[C@@H](C)O)C(C)C [SEQ ID NO: 213] (Ac-IHVTIPADLWDWKNK-NH2),< 10
14,CC[C@H](C)[C@H](NC(C)=O)C(=O)N[C@@H](Cc1c[nH]cn1)C(=O)N[C@H](C(=O)N[C@H](C(=O)N[C@H](C(=O)N1CCC[C@H]1C(=O)N[C@@H](C)C(=O)N[C@@H](CC(=O)O)C(=O)N[C@@H](CC(C)C)C(=O)N[C@@H](Cc1c[nH]c2ccccc12)C(=O)N[C@@H](CC(=O)O)C(=O)N[C@@H](Cc1c[nH]c2ccccc12)C(=O)N[C@@H](C)C(=O)N[C@@H](CC(N)=O)C(=O)N[C@@H](CCCCN)C(N)=O)[C@@H](C)CC)[C@@H](C)O)C(C)C [SEQ ID NO: 214] (Ac-IHVTIPADLWDWANK-NH2),< 10
15,CC[C@H](C)[C@H](NC(C)=O)C(=O)N[C@@H](Cc1c[nH]cn1)C(=O)N[C@H](C(=O)N[C@H](C(=O)N[C@H](C(=O)N1CCC[C@H]1C(=O)N[C@@H](C)C(=O)N[C@@H](CC(=O)O)C(=O)N[C@@H](CC(C)C)C(=O)N[C@@H](Cc1c[nH]c2ccccc12)C(=O)N[C@@H](CC(=O)O)C(=O)N[C@@H](Cc1c[nH]c2ccccc12)C(=O)NCC(=O)N[C@@H](CC(N)=O)C(=O)N[C@@H](CCCCN)C(N)=O)[C@@H](C)CC)[C@@H](C)O)C(C)C [SEQ ID NO: 215] (Ac-IHVTIPADLWDWGNK-NH2),< 10
16,CC[C@H](C)[C@H](NC(C)=O)C(=O)N[C@@H](Cc1c[nH]cn1)C(=O)N[C@H](C(=O)N[C@H](C(=O)N[C@H](C(=O)N1CCC[C@H]1C(=O)N[C@@H](C)C(=O)N[C@@H](CC(=O)O)C(=O)N[C@@H](CC(C)C)C(=O)N[C@@H](Cc1c[nH]c2ccccc12)C(=O)N[C@@H](CC(=O)O)C(=O)N[C@@H](Cc1c[nH]c2ccccc12)C(=O)N[C@@H](CC(C)C)C(=O)N[C@@H](CC(N)=O)C(=O)N[C@@H](CCCCN)C(N)=O)[C@@H](C)CC)[C@@H](C)O)C(C)C [SEQ ID NO: 216] (Ac-IHVTIPADLWDWLNK-NH2),< 10
